{"source": "patent US20260083826A1", "about": "“NEW SYNTHETIC DRUGS FOR TREATING ALZHEIMER'S DISEASE” (OKINAWA INSTITUTE OF SCIENCE AND TECHNOLOGY SCHOOL …, priority 2022, published 2026)", "key": {"[1]": {"tested_on": "calyx of Held presynaptic terminals", "assay": "Simultaneous pre- and postsynaptic whole-cell recording of EPSCs at the calyx of Held in brainstem slices", "assay_type": "cell-based, mouse", "settings": "for EPSC amplitude at 30 min (normalized to baseline): 1 μM intra-terminal; for EPSC amplitude 30 min after infusion (normalized to baseline) / EPSC amplitude remaining 30 min after infusion (normalized to baseline): 20 μM loaded in presynaptic terminal; for Prevention of WT h-tau-induced EPSC rundown: 20 μM co-loaded with WT h-tau 20 μM; for Effect on h-tau-induced EPSC rundown: 1 mM co-loaded with h-tau 20 μM, 30 min after infusion"}, "porcine tubulin": {"target": "porcine tubulin (Sus scrofa, UniProt P02550+P02554)", "sequence (P02550 whole entry)": "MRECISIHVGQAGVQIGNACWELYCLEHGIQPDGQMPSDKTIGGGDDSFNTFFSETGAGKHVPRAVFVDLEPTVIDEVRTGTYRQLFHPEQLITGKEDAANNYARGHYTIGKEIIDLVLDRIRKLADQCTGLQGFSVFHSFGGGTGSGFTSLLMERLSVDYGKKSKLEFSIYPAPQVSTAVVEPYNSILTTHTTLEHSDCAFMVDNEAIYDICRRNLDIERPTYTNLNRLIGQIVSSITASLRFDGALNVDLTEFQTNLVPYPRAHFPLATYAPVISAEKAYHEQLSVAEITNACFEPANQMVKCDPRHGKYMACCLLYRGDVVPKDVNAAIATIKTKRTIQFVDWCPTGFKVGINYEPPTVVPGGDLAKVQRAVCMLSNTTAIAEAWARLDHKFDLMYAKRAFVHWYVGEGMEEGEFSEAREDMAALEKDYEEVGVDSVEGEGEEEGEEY", "sequence (P02554 whole entry)": "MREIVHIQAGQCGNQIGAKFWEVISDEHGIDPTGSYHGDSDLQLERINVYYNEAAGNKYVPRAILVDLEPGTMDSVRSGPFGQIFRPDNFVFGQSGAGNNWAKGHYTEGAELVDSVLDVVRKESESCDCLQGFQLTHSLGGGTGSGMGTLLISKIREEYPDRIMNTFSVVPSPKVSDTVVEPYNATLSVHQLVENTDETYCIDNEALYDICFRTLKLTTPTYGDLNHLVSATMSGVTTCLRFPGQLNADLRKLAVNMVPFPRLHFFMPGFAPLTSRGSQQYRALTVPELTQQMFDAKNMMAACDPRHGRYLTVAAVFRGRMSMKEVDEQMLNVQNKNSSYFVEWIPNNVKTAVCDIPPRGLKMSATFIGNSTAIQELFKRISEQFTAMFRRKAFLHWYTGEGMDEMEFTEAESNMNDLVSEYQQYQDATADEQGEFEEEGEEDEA", "assay": "Tubulin polymerization assay (MT assembly)", "assay_type": "biochemical"}, "[2]": {"tested_on": "calyx of Held presynaptic terminals", "assay": "Membrane capacitance measurements (SV exo-endocytosis) at calyx of Held presynaptic terminals", "assay_type": "cell-based, mouse", "settings": "for Presynaptic Ca2+ current charge (QCa) / Exocytic capacitance magnitude / Endocytic rate (endocytic capacitance change): 20 μM; for Presynaptic Ca2+ current charge (QCa): 20-30 min after patch membrane rupture; for Exocytic capacitance magnitude: vs controls; for Effect on h-tau-induced endocytic slowing: 0.25 mM co-loaded with WT h-tau 20 μM"}, "β3-tubulin": {"tested_on": "β3-tubulin", "assay": "Immunofluorescence quantification of MTs in calyceal terminals", "assay_type": "cell-based, mouse", "protocol": "(§1) The following primary antibodies were used: anti-β3-tubulin (Synaptic System, #302304), anti-human Tau (BioLegend, #806501), anti-dynamin (Invitrogen, PA1-660). Secondary antibodies were goat IgG conjugated with Alexa Fluor 488, 568, or 647 (Thermo Fisher Scientific). Acute brainstem slices (175 μm in thickness, see below) were fixed with 4% paraformaldehyde in PBS for 30 min at 37° C. and overnight at 4° C. On the following day, slices were rinsed three times in PBS, permeabilized in PBS containing 0.5% Triton X-100 (Tx-100; Nacalai Tesque) for 30 min and blocked in PBS containing 3% bovine serum albumin (BSA; Sigma-Aldrich) and 0.05% Tx-100 for 45 min. Slices were incubated overnight at 4° C. with primary antibody diluted in PBS 0.05% Tx-100, 0.3% BSA. On the next day, slices were rinsed three times with PBS containing 0.05% Tx-100 for 10 min and incubated with corresponding secondary antibody diluted in PBS 0.05% Tx-100, 0.3% BSA for 1 h at room temperature (RT). […] For quantifying fluorescence intensity levels, the region of interest was delimited around calyceal terminals, and background fluorescence was subtracted using ImageJ software.\n(§2) The monomeric GTPases dynamin 1 and 3 play critical roles in the endocytic fission of SVs (50-52). […] To test this hypothesis, we performed immunofluorescence microscopy and image analysis to quantify MTs and dynamin. […]"}, "dynamin1": {"tested_on": "dynamin1", "assay": "Immunofluorescence quantification of bound-form dynamin in calyceal terminals", "assay_type": "cell-based, mouse", "protocol": "as §1, §2"}, "MT-dynamin 1 binding": {"target": "T1, MT-dynamin 1 binding (Sus scrofa, UniProt P02550+P02554)", "T1 construct": "His", "T1 sequence (P02550 whole entry)": "as the sequence (P02550 whole entry) above", "T1 sequence (P02554 whole entry)": "as the sequence (P02554 whole entry) above", "assay": "MT-dynamin binding assay (microtubule spin-down, SDS-PAGE, SYPRO Orange)", "parameters": "species or system human", "protocol": "Microtubule binding assay was performed using Microtubule Binding Protein Spin Down Assay Kit (cat #BK029, Cytoskeleton Inc., Denver, CO, USA). Briefly, 20 μl of 5 mg/ml tubulin in general tubulin buffer (GTB; 80 mM PIPES pH7.0, 2 mM MgCl2, 0.5 mM EGTA) supplemented with 1 mM GTP were polymerized by adding 2 μl of cushion buffer (80 mM PIPES pH7.0, 1 mM MgCl2, 1 mM EGTA, 60% glycerol), and incubated at 35° C. for 20 min. Microtubules were stabilized with 20 μM Taxol. Taxol-stabilized microtubules (2.5 μM) and dynamin 1 ([…]) were incubated in GTB with or without 1 mM peptide at room temperature for 30 min. After incubation, the 50 μl of mixture was loaded on top of 100 μl cushion buffer supplemented with 20 μM Taxol, and then centrifuged at 100,000×g for 40 min at room temperature. After the ultracentrifugation, 50 μl of supernatant was taken and mixed with 10 μl of 5×sample buffer. The resultant pellet was resuspended with 50 μl of 1×sample buffer. Twenty μl of each sample was analyzed by SDS-PAGE and stained with SYPRO Orange. Protein bands were visualized using FLA-3000 (FUJIFILM Co. LTD, Tokyo, Japan).\nMTs were prepared from tubulin and stabilized by taxol. And then taxol stabilized MTs and Dyn1 were incubated with/without PHDP5. Using ultracentrifugation to separate supernatant (unbinding protein) and pellet (bound protein) fractions. Samples were analyzed by SDS-PAGE gel and visualized by SYPRO Orange staining. […] This may cause by competitive binding of Dyn1/PHDP5 to MTs (FIG. 6A).\nWe changed the incubation order that MTs were mixed with PHDP5 and then incubated with Dyn1.\nFor optimizing the condition of PHDP5 to block MT-dynamin binding, we have tried different PHDP5 concentration and incubation period with Dyn1. […] Without PHDP5, there is no difference between each time point (FIG. 7B). […] We prepared several FITC-labeled PHDP5 peptide candidates to improve the brain barrier permeability of PHDP5 (Table 3). The N-terminus of the construct was protected with β-alanine (BA) and labeled with FITC. Under the same condition, several FITC-labeled PHDP5 candidates and its' scrambled control were also tested."}, "[3]": {"settings": "30 min after patch membrane rupture"}, "[4]": {"settings": "30 min after patch membrane rupture, listed as h-tau"}}, "note": "Entries after “also recorded” stand apart in the source; their conditions may differ."}
{"molecule": "CC(=O)O[C@H]1C(=O)[C@@]2(C)[C@H]([C@H](OC(=O)c3ccccc3)[C@]3(O)C[C@H](OC(=O)[C@H](O)[C@@H](NC(=O)c4ccccc4)c4ccccc4)C(C)=C1C3(C)C)[C@]1(OC(C)=O)CO[C@@H]1C[C@@H]2O", "note": "[taxol, reference compound]", "values": [{"measurement": "EPSC amplitude at 30 min (normalized to baseline)", "setting": "[1]; EPSCs evoked at 0.1 Hz", "value": "104±3.0", "unit": "%"}, {"measurement": "EPSC amplitude at 30 min (normalized to baseline)", "setting": "[1]; EPSCs evoked at 0.1 Hz, listed as Taxol", "value": "105±3.0", "unit": "%"}, {"measurement": "EPSC amplitude at 30 min (normalized to baseline)", "setting": "[1]; EPSCs evoked at 1 Hz", "value": "41±12", "unit": "%"}, {"measurement": "EPSC amplitude at 30 min (normalized to baseline)", "setting": "[1]; EPSCs evoked at 1 Hz, listed as Taxol", "value": "41.4±12", "unit": "%"}, {"measurement": "MT assembly in in vitro tubulin polymerization assay", "setting": "porcine tubulin; 1 μM", "value": "assembles tubulins into MTs; also recorded: MT assembly"}]}
{"molecule": "WT h-tau: wild-type recombinant human tau of ON4R isoform expressed in E. coli", "values": [{"measurement": "Miniature EPSC amplitude and frequency", "setting": "[1]; 20 μM intra-terminal loading", "value": "neither amplitude nor frequency was affected"}, {"measurement": "EPSC amplitude 30 min after infusion (normalized to baseline)", "setting": "[1]; EPSCs evoked at 0.1 Hz", "value": "85±12", "unit": "%"}, {"measurement": "EPSC amplitude 30 min after infusion (normalized to baseline)", "setting": "[1]; EPSCs evoked at 0.1 Hz, listed as h-tau", "value": 85, "unit": "%+12"}, {"measurement": "EPSC amplitude remaining 30 min after infusion (normalized to baseline)", "setting": "[1]; EPSCs evoked at 1 Hz", "value": "65±5", "unit": "%"}, {"measurement": "EPSC amplitude remaining 30 min after infusion (normalized to baseline)", "setting": "[1]; EPSCs evoked at 1 Hz, listed as h-tau", "value": "23±9", "unit": "%"}, {"measurement": "Presynaptic Ca2+ current charge (QCa)", "setting": "[2]", "value": "not different from controls; also recorded: remained unchanged"}, {"measurement": "Presynaptic Ca2+ current charge (QCa)", "setting": "[2]; listed as h-tau", "value": "without a change"}, {"measurement": "Exocytic capacitance magnitude", "setting": "[2]; 20 min after patch membrane rupture", "value": "not different from controls; also recorded: remained similar to controls"}, {"measurement": "Endocytic rate (endocytic capacitance change)", "setting": "[2]; 20 min after patch membrane rupture, vs non-loading controls", "value": "significant slowing; also recorded: significantly prolonged"}, {"measurement": "Endocytic rate (endocytic capacitance change)", "setting": "[2]; [3]", "value": "further prolonged"}, {"measurement": "Exocytic capacitance magnitude", "setting": "[2]; [3]", "value": "significantly less than controls"}, {"measurement": "Exocytic capacitance magnitude", "setting": "[2]; [4]", "value": "significant reduction"}, {"measurement": "Endocytic rate (endocytic capacitance change)", "setting": "[2]; [4]", "value": "further slowed"}, {"measurement": "MT assembly in in vitro tubulin polymerization assay", "setting": "porcine tubulin; 10 μM", "value": "MT assembly"}, {"measurement": "Increase in MT (β3-tubulin) signals vs terminals without loading", "setting": "β3-tubulin; 20 μM whole-cell infusion", "value": 2.1, "unit": "fold"}, {"measurement": "β3-tubulin immunofluorescence intensity vs control terminals", "setting": "β3-tubulin; WT h-tau loading", "value": "significantly increased"}, {"measurement": "Increase in dynamin signal vs terminals without loading", "setting": "dynamin1; 20 μM whole-cell infusion", "value": 2.6, "unit": "fold"}, {"measurement": "dynamin1 immunofluorescence intensity vs control terminals", "setting": "dynamin1; WT h-tau loading", "value": "significantly increased"}]}
{"molecule": "COC(=O)Nc1nc2ccc(C(=O)c3cccs3)cc2[nH]1", "note": "[nocodazole, reference compound]", "values": [{"measurement": "Effect on EPSC amplitude, loaded alone", "setting": "[1]; 20 μM alone", "value": "no effect"}, {"measurement": "Prevention of WT h-tau-induced EPSC rundown", "setting": "[1]", "value": "fully prevented"}, {"measurement": "Prevention of WT h-tau-induced EPSC rundown", "setting": "[1]; listed as Nocodazole", "value": "prevented EPSC rundown"}, {"measurement": "Effect on exo-endocytosis, loaded alone", "setting": "[2]; 20 μM alone", "value": "no effect"}, {"measurement": "Prevention of h-tau-induced block of SV endocytosis", "setting": "[2]; 20 μM co-loaded with h-tau 20 μM, 25 min after loading", "value": "fully prevented"}, {"measurement": "Concentration at which maximal inhibition of h-tau-dependent MT assembly is reached", "setting": "porcine tubulin", "value": 20, "unit": "µM"}, {"measurement": "Inhibition of h-tau-dependent MT assembly", "setting": "porcine tubulin; nocodazole 1, 10, 20, 50 μM, ON4R h-tau (20 μM)", "value": "inhibited h-tau-dependent MT assembly in a concentration-dependent manner; also recorded: Concentration-dependent inhibitory effects"}]}
{"molecule": "O=C1NC(=S)N(c2cccc(Br)c2)C(=O)/C1=C/c1ccco1", "note": "[SMFH2, reference compound]", "values": [{"measurement": "Effect on SV endocytosis", "setting": "[2]; calyceal terminals in slices from post-hearing mice (P13-14)", "value": "slightly prolonged SV endocytosis, but this effect was statistically insignificant"}]}
{"molecule": "PHDP5: synthetic dodecapeptide corresponding to amino acids 560-571 of dynamin 1 (PH domain); inhibits MT-dynamin interaction (EKKYMLSVDNLK)", "values": [{"measurement": "Effect on EPSC amplitude, loaded alone", "setting": "[1]; 1 mM alone", "value": "did not affect"}, {"measurement": "Effect on EPSC amplitude, loaded alone", "setting": "[1]; 1 mM alone, listed as DPHP5", "value": "no effect"}, {"measurement": "Effect on h-tau-induced EPSC rundown", "setting": "[1]", "value": "significantly attenuated"}, {"measurement": "Effect on h-tau-induced EPSC rundown", "setting": "[1]; listed as DPHP5", "value": "attenuated"}, {"measurement": "Effect on exo-endocytic capacitance changes, loaded alone", "setting": "[2]; 0.25 mM alone", "value": "no effect"}, {"measurement": "Effect on h-tau-induced endocytic slowing", "setting": "[2]", "value": "significantly attenuated"}, {"measurement": "Effect on h-tau-induced endocytic slowing", "setting": "[2]; listed as DPHP5", "value": "significant difference"}, {"measurement": "Inhibition of MT-dynamin 1 interaction", "setting": "MT-dynamin 1 binding; 1 mM peptide", "value": "significantly inhibited; also recorded: strongly inhibits"}, {"measurement": "% of Dyn1 in pellet fraction", "setting": "MT-dynamin 1 binding; MTs incubated with 1 mM, shorter incubation period with Dyn1 (10 min)", "value": "lower"}, {"measurement": "% of Dyn1 in pellet fraction", "setting": "MT-dynamin 1 binding; MTs incubated with 3 mM compared with 1 mM", "value": "lower"}, {"measurement": "% of Dyn1 in pellet fraction", "setting": "MT-dynamin 1 binding; MTs incubated with 3 mM, incubation with Dyn1 for 5 min", "value": "lower"}, {"measurement": "% of Dyn1 in pellet fraction", "setting": "MT-dynamin 1 binding; MTs mixed with PHDP5 first, then incubated with Dyn1", "value": "decreased"}, {"measurement": "Dynamin 1 in precipitates (ppt fraction) relative to total amount", "setting": "MT-dynamin 1 binding; peptide added to MT and dynamin 1, 22.6±2.4% with MT without peptide", "value": "6.3±2.4", "unit": "%"}, {"measurement": "% of Dyn1 in pellet fraction", "setting": "MT-dynamin 1 binding; taxol stabilized MTs and Dyn1 incubated together with/without PHDP5", "value": "no difference"}]}
{"molecule": "del-MTBD: human tau deletion mutant lacking the MT-binding domain (amino acid 244 to 367) (protein) MAEPRQEFEVMEDHAGTYGLGDRKDQGGYTMHQDQEGDTDAGLKAEEAGIGDTPSLEDEAAGHVTQARMVSKSKDGTGSDDKKAKGADGKTKIATPRGAAPPGQKGQANATRIPAKTPPAPKTPPSSGEPPKSGDRSGYSSPGSPGTPGSRSRTPSLPTPPTREPKKVAVVRTPPKSPSSAKSRLNKKIETHKLTFRENAKAKTDHGAEIVYKSPVVSGDTSPRHLSNVSSTGSIDMVDSPQLATLADEVSASLAKQGL", "values": [{"measurement": "Effect on EPSC amplitude, loaded alone", "setting": "[1]; 20 μM alone", "value": "no effect"}, {"measurement": "MT assembly in in vitro tubulin polymerization assay", "setting": "porcine tubulin; 10 μM, listed as Del-MTBD", "value": "lacking tubulin polymerization capability"}]}
